In patent EP0415999B1, “COMPOSITIONS HAVING USE AS TREATMENT OF PSORIASIS AND NEUROP[…]” (THE UNITED STATES OF AMERICA as represented by the …, priority 1988, dated 1998):

System: volunteers who tested negative or HIV antibodies
Assay: Overall neuropsychologic and clinical observations during seven-day peptide administration
Type: in vivo, human
Procedure: As indicated in the Table, symptoms of substance abuse, childhood dyslexia and depression were ameliorated. The peptide having the formula: [formula] was given at dosage of 0.033 mg/kg/da to 0.133 mg/kg/da for seven days. As indicated in the Table, the unexpected effects observed in these volunteers who tested negative or HIV antibodies were the following: • 1. […] This effect maintained for one month of follow-up.

## C[C@@H](N)C(=O)N[C@@H](CO)C(=O)N[C@H](C(=O)N[C@H](C(=O)N[C@H](C(=O)N[C@@H](CC(N)=O)C(=O)N[C@@H](Cc1ccc(O)cc1)C(=O)N[C@H](C(N)=O)[C@@H](C)O)[C@@H](C)O)[C@@H](C)O)[C@@H](C)O [Peptide T]
0.033 mg/kg/da to 0.133 mg/kg/da for seven days, remitted after Peptide T was discontinued
  scores on memory and attention components of standard neuropsychologic tests: Incremental scores
All subjects, while on drug, did not continue after drug discontinuance
  physical activity: increases in physical activity
All subjects, effect abated off drug
  fatigue, energy and vigor (reported by subjects): decreased fatigue and increased energy and vigor
Two research volunteers with prior histories of depression, effect maintained for one month of follow-up
  mood scores on depression scales: Improved mood scores
